Assay results: patent publication US7544701B2, “Sulfonyldihydrobenzimidazolone compounds as 5-hydroxytryptamine-6 ligands” (Wyeth, priority 2003, dated 2009)

Molecular target: T1, human cloned 5-HT6 receptors (Homo sapiens, UniProt P50406)
T1 construct: expressed in transfected cells; host or cells: Hela cells
Assay: 5-HT6 binding affinity ([3H]-LSD displacement, membranes of Hela cells expressing human cloned 5-HT6 receptors)
Conditions: [3H]-LSD 3.0 nM, 120 min, room temperature, Hela cell membranes
Method: The affinity of test compounds for the serotonin 5-HT6 receptor is evaluated in the following manner. Cultured Hela cells expressing human cloned 5-HT6 receptors are harvested and centrifuged at low speed (1,000×g) for 10.0 min to remove the culture media. The harvested cells are suspended in half volume of fresh physiological phosphate buffered saline solution and recentrifuged at the same speed. This operation is repeated. The collected cells are then homogenized in ten volumes of 50 mM Tris.HCl (pH 7.4) and 0.5 mM EDTA. The homogenate is centrifuged at 40,000×g for 30.0 min and the precipitate is collected. The obtained pellet is resuspended in 10 volumes of Tris.HCl buffer and recentrifuged at the same speed. The final pellet is suspended in a small volume of Tris.HCl buffer and the tissue protein content is determined in aliquots of 10-25 μl volumes. Bovine Serum Albumin is used as the standard in the protein determination according to the method described in Lowry et al., J. Biol. Chem., 193:265 (1951). The volume of the suspended cell membranes is adjusted to give a tissue protein concentration of 1.0 mg/ml of suspension. The prepared membrane suspension (10 times concentrated) is aliquoted in 1.0 ml volumes and stored at −70° C. until used in subsequent binding experiments.
Binding experiments are performed in a 96 well microtiter plate format, in a total volume of 200 μl. […] The test compounds are added in 20.0 μl volume.
The reaction is allowed to proceed in the dark for 120 min at room temperature, at which time, the bound ligand-receptor complex is filtered off on a 96 well unifilter with a Packard Filtermate® 196 Harvester. The bound complex caught on the filter disk is allowed to air dry and the radioactivity is measured in a Packard TopCount® equipped with six photomultiplier detectors, after the addition of 40.0 μl Microscint®-20 scintillant to each shallow well. The unifilter plate is heat-sealed and counted in a PackardTopCount® with a tritium efficiency of 31.0%.
Binding in the presence of varying concentrations of test compound is expressed as a percentage of specific binding in the absence of test compound. The results are plotted as log % bound versus log concentration of test compound. […] A linear regression line of data points is plotted, from which the IC50 value is determined and the Ki value is determined based upon the following equation: Ki=IC50/(1+L/KD) where L is the concentration of the radioactive ligand used and KD is the dissociation constant of the ligand for the receptor, both expressed in nM.

T1 sequence (P50406 whole entry): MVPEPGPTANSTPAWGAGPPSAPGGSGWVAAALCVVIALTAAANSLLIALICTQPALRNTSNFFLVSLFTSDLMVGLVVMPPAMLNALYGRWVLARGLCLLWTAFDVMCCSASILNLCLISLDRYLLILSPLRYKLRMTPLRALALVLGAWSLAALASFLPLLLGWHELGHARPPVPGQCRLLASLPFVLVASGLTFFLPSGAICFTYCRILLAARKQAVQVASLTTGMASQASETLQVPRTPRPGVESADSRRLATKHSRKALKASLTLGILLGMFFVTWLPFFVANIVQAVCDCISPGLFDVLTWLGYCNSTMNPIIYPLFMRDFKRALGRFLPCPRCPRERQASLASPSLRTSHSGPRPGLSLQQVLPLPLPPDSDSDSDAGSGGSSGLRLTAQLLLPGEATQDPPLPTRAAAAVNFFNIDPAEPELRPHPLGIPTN

Ki	SMILES
0.133 µM	Cc1nc(S(=O)(=O)n2c(=O)n(C3=CCNCC3)c3ccccc32)cn1C [Example 52, 1-[(1,2-dimethyl-1H-imidazol-4-yl)sulfonyl]-3-(1,2,3,6-tetrahydropyridin-4-yl)-1,3-dihydro-2H-benzimidazol-2-one]
0.028 µM	Cc1nn(C)c(Cl)c1S(=O)(=O)n1c(=O)n(C2=CCNCC2)c2ccccc21 [Example 53, 1-[(5-chloro-1,3-dimethyl-1H-pyrazol-4-yl)sulfonyl]-3-(1,2,3,6-tetrahydropyridin-4-yl)-1,3-dihydro-2H-benzimidazol-2-one]
0.051 µM	Cc1noc(C)c1S(=O)(=O)n1c(=O)n(C2=CCNCC2)c2ccccc21 [Example 54, 1-[(3,5-dimethylisoxazol-4-yl)sulfonyl]-3-(1,2,3,6-tetrahydropyridin-4-yl)-1,3-dihydro-2H-benzimidazol-2-one]
0.012 µM	O=c1n(C2=CCNCC2)c2ccccc2n1S(=O)(=O)c1cccc2nsnc12 [Example 55, 1-(2,1,3-benzothiadiazol-4-ylsulfonyl)-3-(1,2,3,6-tetrahydropyridin-4-yl)-1,3-dihydro-2H-benzimidazol-2-one]
